The numbers were not newly measured in patent US20190151045A1, “Device and Methods for Disinfecting Dental Lines” (Toppen Medical Dental LLC, priority 2017, published 2019), which cites them from elsewhere.

The conditions of the series: dissipates into molecular oxygen, 0.5 mg/L ozone in dental water line.

Read-outs that look alike come from different tables or passages of the source.

In the case of `O=[O+][O-]` [ozone], the “half-life (t1/2) of ozone” value is around 20 min. For the same compound, where the note is “listed as Ozone”, the “half-life (t1/2) of ozone” value was “about 20 min”.
